The text below walks through data of patent US20140377289A1, “Metallodrugs Having Improved Pharmacological Properties, and Methods of Manufacture and Use Thereof” (MetalloPharm, LLC, priority 2011, published 2014).

Read-outs that look alike come from different tables or passages of the source. Where a SMILES comes first, the peptide text is derived from it.

Data set [1] deals with T1, Recombinant human somatic ACE (sACE-1) (Homo sapiens, UniProt P12821).
T1 construct: sACE-1: Leu30-Leu1261, with C-terminal His tag; His tag (C); purchased R&D Systems; host or cells: NS0-derived murine myeloma cell line
T1 sequence (P12821 30-1261): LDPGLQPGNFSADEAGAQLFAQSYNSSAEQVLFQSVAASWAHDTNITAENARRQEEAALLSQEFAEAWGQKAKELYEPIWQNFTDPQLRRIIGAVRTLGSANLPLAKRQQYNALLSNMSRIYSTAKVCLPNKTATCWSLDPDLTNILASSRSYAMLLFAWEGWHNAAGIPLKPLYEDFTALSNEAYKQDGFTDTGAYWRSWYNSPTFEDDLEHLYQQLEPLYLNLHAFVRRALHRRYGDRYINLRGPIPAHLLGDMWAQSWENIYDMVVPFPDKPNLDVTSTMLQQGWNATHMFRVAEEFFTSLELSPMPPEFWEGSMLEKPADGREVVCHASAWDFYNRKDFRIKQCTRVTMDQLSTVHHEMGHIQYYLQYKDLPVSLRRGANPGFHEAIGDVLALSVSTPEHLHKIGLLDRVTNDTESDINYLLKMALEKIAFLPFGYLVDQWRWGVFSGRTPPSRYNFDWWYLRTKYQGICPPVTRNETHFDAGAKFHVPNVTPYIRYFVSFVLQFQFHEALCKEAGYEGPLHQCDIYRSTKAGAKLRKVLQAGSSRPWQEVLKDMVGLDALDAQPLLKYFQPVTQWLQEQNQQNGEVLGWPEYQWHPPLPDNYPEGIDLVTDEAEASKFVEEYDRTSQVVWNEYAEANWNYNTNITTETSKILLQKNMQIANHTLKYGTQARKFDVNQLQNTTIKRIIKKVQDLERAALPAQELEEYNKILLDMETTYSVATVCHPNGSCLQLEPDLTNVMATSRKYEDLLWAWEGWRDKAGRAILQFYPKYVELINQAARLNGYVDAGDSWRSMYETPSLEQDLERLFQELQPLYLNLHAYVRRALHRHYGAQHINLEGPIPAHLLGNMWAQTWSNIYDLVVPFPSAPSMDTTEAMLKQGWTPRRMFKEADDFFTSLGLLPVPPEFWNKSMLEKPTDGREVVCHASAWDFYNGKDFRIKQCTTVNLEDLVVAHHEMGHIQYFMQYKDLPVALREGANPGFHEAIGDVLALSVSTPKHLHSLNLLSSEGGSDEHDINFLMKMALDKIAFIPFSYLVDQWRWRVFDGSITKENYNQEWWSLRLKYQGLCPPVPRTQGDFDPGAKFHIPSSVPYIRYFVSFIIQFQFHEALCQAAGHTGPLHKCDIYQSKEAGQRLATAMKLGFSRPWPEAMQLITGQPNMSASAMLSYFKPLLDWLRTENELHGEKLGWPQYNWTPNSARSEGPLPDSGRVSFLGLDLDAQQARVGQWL
As to the kind of experiment: Determination of IC50 values, sACE-1 fluorogenic substrate cleavage. The format is biochemical. The settings on record: 1 nM sACE-1, 20 min preincubation, 37° C., pH 7.4; read-out: IC50's.

Another data set relates to pUC19 plasmid DNA. As to the kind of experiment: DNA nicking and linearization nuclease assay. The format is biochemical. The settings on record: 10 μM base pairs pUC19, ascorbate/peroxide.
The test system of data set [2] is HCV RNA replicon in ET (luc-ubi-neo/ET) Huh7 cells. The settings on record: read-out: antiviral IC50; 72 h, replicon-derived Luc activity. (In antiviral work, replicon cells carry a viral genome segment that copies itself.)
The next data set in a line: in vitro. The settings on record: human.
For data set [3], the system named is 5′ fluorescein end-labeled RRE stem IIB RNA (Fl-RNA). As to the kind of experiment: PAGE analysis of RRE RNA cleavage kinetics. The settings on record: 100 nM complex, 100 nM Fl-RNA, 1 mM H2O2, 1 mM ascorbate, 37° C.; initial rate. The data set is classed as biochemical, HIV. As for the experimental part:
PAGE Analysis of RRE RNA Cleavage Kinetics. Reactions of 100 nM metal-chelate-Rev (1:1.2 M:chelate ratio), 1 mM H2O2, 1 mM ascorbate, and 100 nM 5′ fluorescein end-labeled RRE stem IIB RNA (Fl-RNA) were conducted at 37° C. in separate tubes, each containing 20 μL total reaction volume—one tube corresponding to one gel lane. A buffer consisting of 20 mM HEPES, 100 mM NaCl, pH 7.4 was used in all experiments. Fl-RNA was heated to 90° C. and allowed to cool to, but not below 37° C. prior to reaction, and the Fl-RNA was immediately added to each pre-incubated tube. Reactants were added to pre-incubated tubes at time-points corresponding to the beginning of each reaction, which were performed in a dark incubator. Reaction start times were staggered and all reactions were quenched at the same time by addition of a quenching/gel-loading buffer solution (80 μL/tube) consisting of standard 1× tris-EDTA-acetic acid buffer, 8M urea, 20 mM HEPES, 100 mM NaCl. The tubes were then heated to 90° C. for 5 min and a 5 μL aliquot from each tube was then loaded into its corresponding lane of a 10% polyacrylamide 8 M urea gel, resulting in […] Fl-RNA per lane. Gel electrophoresis was performed at 250 V for 1.5 h. Gels were analyzed on a GE Typhoon variable mode imager using 488 nm excitation and a 526 nm single pass emission filter. Bands were quantified with the program ImageQuant. Loss of initial Fl-RNA reactant bands were fit to a first-order reaction equation using the software Origin, and observed rate constants and initial rates were determined. Control reactions with respective metal-chelates lacking the Rev domain were conducted in the same manner.

For another data set, the system named is HIV RRE RNA (AP-RRE RNA). The format is binding. Conditions: for Kd: 37° C., pH 7.4. Here is the method:
Determination of Dissociation Constants. […] A 660 μL volume of 100 nM AP-RRE RNA was first heated to 90° C. for 5 min and then allowed to cool to, but not below, the titration temperature (37° C.). A 650 μL volume of this sample was added to the pre-thermostatted cuvette. After 10 min of temperature equilibration a solution of 5 μM M-chelate-Rev complex was titrated into the solution. After each addition, 100 μL of the solution was mixed by gentle pipeting to ensure complete mixing. The fluorescence change associated with the change of environment of the aminopurine label was monitored following peptide binding. Titration response curves were dilution and background corrected and normalized to initial intensity values. Curves were fit to a biphasic equation (4) for two independent binding sites where Fobs is the total observed fluorescence intensity, P0 is the total concentration of added M-chelate-Rev, F0, F1, and F2 are fitting parameters corresponding to the intensities of the unbound, singly-bound, and doubly-bound AP-RNA, respectively, R0 is the initial concentration of AP-RNA, and KD1 and KD2 are dissociation constants for binding at the high- and low-affinity sites, respectively. All binding experiments were performed in a binding buffer composed of 20 mM HEPES, 100 mM NaCl, pH 7.4.

The test system of data set [4] is AP-RNA (aminopurine-labeled RRE RNA). The data set can be described thus: Reaction kinetics monitored by real-time fluorimetry, AP-RNA. The format is biochemical, HIV. The settings on record: 100 nM complex, 100 nM AP-RNA, 1 mM H2O2, 1 mM ascorbate, 37° C.; initial rate. As for the experimental part:
Reaction Kinetics Monitored by Real-Time Fluorimetry. Reactions of 100 nM metal-chelate-Rev (1:1.2 M:chelate ratio), 1 mM H2O2, 1 mM ascorbate, and 100 nM AP-RNA were conducted at 37° C. in a fluorescence cuvette in a Varian Cary Eclipse fluorescence spectrophotometer. Reactions were monitored using excitation at 310 nm (SW=10 nm) and emission at 371 nm (SW=10 nm). Prior to reaction the AP-RNA was pre-heated to 90° C. for 5 min and then added to the pre-warmed 37° C. cuvette. The metal-chelate-Rev complexes were added after 5 min, and reactions were initiated by the addition of H2O2 and ascorbate after an additional 10 min. Each resulting fluorescence trace was fit to a first-order reaction equation using the software Origin, and observed rate constants and initial rates were determined; the magnitude of fluorescence change that corresponded to complete reaction was established by averaging the magnitudes of fluorescence change from many trials known to react to completion. All concentrations and buffer were identical to those used in the PAGE analysis assay with Fl-RNA. Control reactions with respective metal-chelates lacking the Rev domain were conducted in the same manner.

Data set [5] concerns the target T2, HCV protease (Hepatitis C virus genotype 1a, UniProt P27958). The format is biochemical. The source says:
(§1) This stems from the relationship between affinity and the on/off rate constants for binding (KA=kon/koff), where higher affinity binding is promoted by larger kon and/or smaller koff values. By contrast, efficient catalytic turnover requires koff values that are preferably no smaller than the rate constant for the inactivation chemistry (kcat), to ensure the availability of metallodrug catalyst for new target molecules, and will be best promoted by relatively high values for both kon and koff, which will result in weaker KA values.
(§2) Apparent binding affinities and rates of inactivation for HCV protease by several metallopeptide derivatives incorporating a Cu-GGH metal binding domain and C-terminal HCV protease targeting peptides were prepared and their affinity and reactivity were evaluated under in the presence of various redox reagents. Affinities lay within the range of 10^4M^−1 and 5×10^8 M^−1.

The target in data set [6] is T2, HCV protease. As to the kind of experiment: biochemical. The data set is classed as binding. Conditions: apparent binding affinity.
Excerpt: as §1, §2

T2 sequence (P27958 1027-1208, other chains not shown): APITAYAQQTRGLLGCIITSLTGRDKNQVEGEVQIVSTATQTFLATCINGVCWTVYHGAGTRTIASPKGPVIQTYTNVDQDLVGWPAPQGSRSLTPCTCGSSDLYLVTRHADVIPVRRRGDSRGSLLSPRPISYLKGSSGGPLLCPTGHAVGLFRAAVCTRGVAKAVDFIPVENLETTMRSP

On to `O=C([O-])CN(CC(=O)[O-])CC(=O)O.[Cu+2]` [Cu-NTA], for which, in data set [1], the 50% inhibitory concentration (IC50) is 36 µM. Moreover, in the data set with pUC19 plasmid DNA (— = Below detection limit), the “klin for DNA linearization, without attached Rev (M-chelate)” value was 0.0032 ± 0.0004 min⁻¹ and the “knick for DNA nicking, without attached Rev (M-chelate)” value is 0.148 ± 0.007 min⁻¹.

As to `N=C(N)NCCC[C@@H](NC(=O)[C@@H](N)Cc1ccc(O)cc1)C(=O)N[C@@H](Cc1ccccc1)C(=O)N[C@@H](CCCCN)C(N)=O` [YrFK, reference compound], in [2], the half-inhibitory concentration (IC50) is above 100 µM. In the data set “in vitro”, the CC50 at 72 h is above 100 µM.

As for `CC[C@H](C)[C@H](NC(=O)[C@H](CCCCN)NC(=O)[C@H](C)NC(=O)[C@H](CCC(=O)O)NC(=O)[C@H](CC(C)C)NC(=O)[C@H](C)NC(=O)[C@H](C)N)C(=O)N[C@@H](CS)C(=O)N[C@@H](Cc1c[nH]cn1)C(=O)N[C@@H](CCC(N)=O)C(=O)N[C@H](C(=O)N[C@@H](CCC(=O)O)C(=O)N[C@@H](Cc1ccc(O)cc1)C(=O)N[C@@H](Cc1ccc(O)cc1)C(=O)N[C@@H](Cc1ccccc1)C(=O)NCC(=O)N[C@@H](CC(=O)O)C(=O)N[C@@H](Cc1ccccc1)C(N)=O)[C@@H](C)CC` [reference compound] (H-AALEAKICHQIEYYFGDF-NH2), in [2], the 50% inhibitory concentration (IC50) is above 100 µM. For the same compound, the CC50 at 72 h in “in vitro” is above 100 µM.

Regarding `CC[C@H](C)[C@H](NC(=O)[C@H](CC(C)C)NC(=O)[C@H](CC(C)C)NC(=O)[C@H](CC(=O)O)NC(=O)[C@@H](NC(=O)[C@H](CCC(=O)O)NC(=O)[C@H](CCCCN)NC(=O)[C@H](Cc1ccc(O)cc1)NC(=O)[C@@H](N)CCCCN)[C@@H](C)O)C(=O)N[C@@H](CC(C)C)C(=O)N[C@@H](Cc1ccccc1)C(=O)N[C@@H](CCCCN)C(=O)N[C@@H](CC(=O)O)C(=O)N[C@@H](CC(=O)O)C(=O)N[C@@H](Cc1ccc(O)cc1)C(=O)N[C@@H](Cc1ccccc1)C(=O)N[C@@H](C)C(=O)N[C@@H](CCCCN)C(=O)N[C@@H](CCCCN)C(=O)N[C@@H](CC(N)=O)C(=O)N[C@@H](CCC(=O)O)C(=O)N[C@@H](CCC(=O)O)C(=O)N[C@@H](CCCNC(=N)N)C(=O)N[C@@H](CCCCN)C(N)=O` [reference compound] (H-KYKETDLLILFKDDYFAKKNEERK-NH2), in [2], the IC50 was above 100 µM. In addition, the CC50 at 72 h in “in vitro” is above 100 µM.

Regarding “Cu complex of KGHK-Rev, KGHKTRQARRNRRRRWRERQR-NH2 [Cu-KGHK-Rev]”, the “Fl-RNA Cleavage Rate” value in [3] is listed as 0.060 ± 0.005 nM/min. Besides, the KA1 in the data set on HIV RRE RNA (AP-RRE RNA) (high-affinity RRE RNA site) is on record as 7.7 10^8 M^−1. Moreover, the Kd at HIV RRE RNA (AP-RRE RNA) (high-affinity RRE RNA site, read-out: KD1) was 0.0013 ± 0.0005 µM. The KA2 in the data set on HIV RRE RNA (AP-RRE RNA) (low-affinity RRE RNA site) was 0.066 10^8 M^−1. The Kd on HIV RRE RNA (AP-RRE RNA) (low-affinity RRE RNA site, read-out: KD2) is 0.148 ± 0.005 µM. In the data set on pUC19 plasmid DNA (100 nM M-chelate-Rev), the “klin for DNA linearization, with attached Rev (M-chelate-REV)” value is 0.0062 ± 0.0006 min⁻¹ and the “knick for DNA nicking, with attached Rev (M-chelate-REV)” value came out at 0.17 ± 0.04 min⁻¹. For the same compound, the “AP-RNA Modification Rate” value in [4] was 0.511 ± 0.003 nM/min.

As to Cu-GGHGDEMEEC, the “rate constant for inactivation kinact (catalytic efficiency)” value at HCV protease [5] (in the presence of ascorbate/O2) was around 1.6 h⁻¹. Besides, the inactivation rate constant (kinact) at HCV protease [5] (in the presence of various redox reagents) was determined as 0.04 min⁻¹. In addition, the KA at HCV protease [6] worked out at 48000 M⁻¹.

One may read the IC50 as the point on the concentration scale where inhibition reaches its midpoint. By kinact is commonly meant the rate constant of inactivation at saturating inhibitor.
